Source: PMC7452880 (Clinical Drug Investigation, 2020)
Read-outs that look alike come from different tables or passages of the source.

Tests used:
[1] = humans, over 24 h; cited from earlier work
[2] = cited from earlier work
Safety assessments = assay type: in vivo, human; conditions: per treatment period; for incidences of changes in diastolic blood pressure / incidences of changes in systolic blood pressure: potentially clinically relevant changes from baseline; for Patients who experienced AEs considered to be related to the study drug: treatment-emergent
[3] = human plasma; cited from earlier work
[4] = assay type: in vivo, human
human BCRP = molecular target: T1, human BCRP (Homo sapiens, UniProt Q9UNQ0); assay: BCRP-mediated vesicular transport assay; assay type: in vitro ADME
T1 sequence (Q9UNQ0 1-655): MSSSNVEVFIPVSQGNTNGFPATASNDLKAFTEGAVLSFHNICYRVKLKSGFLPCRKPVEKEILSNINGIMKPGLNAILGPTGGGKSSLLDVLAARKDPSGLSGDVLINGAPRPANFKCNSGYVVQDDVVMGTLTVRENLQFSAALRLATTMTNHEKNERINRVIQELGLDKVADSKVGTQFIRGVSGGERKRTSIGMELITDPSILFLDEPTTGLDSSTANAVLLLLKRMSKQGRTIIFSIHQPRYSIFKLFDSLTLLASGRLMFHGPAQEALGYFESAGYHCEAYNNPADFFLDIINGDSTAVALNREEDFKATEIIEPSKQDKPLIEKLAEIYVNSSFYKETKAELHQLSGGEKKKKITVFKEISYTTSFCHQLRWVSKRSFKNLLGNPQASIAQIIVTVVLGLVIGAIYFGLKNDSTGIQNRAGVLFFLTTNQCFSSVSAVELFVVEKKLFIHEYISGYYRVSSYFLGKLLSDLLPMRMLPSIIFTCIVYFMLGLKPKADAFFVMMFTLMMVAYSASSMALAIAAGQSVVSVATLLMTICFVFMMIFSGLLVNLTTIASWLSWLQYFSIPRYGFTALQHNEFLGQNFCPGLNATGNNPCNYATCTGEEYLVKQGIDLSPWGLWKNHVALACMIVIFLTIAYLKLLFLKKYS

human MRP4 = molecular target: T2, human MRP4 (Homo sapiens, UniProt O15439); assay: MRP4-mediated vesicular transport assay; assay type: in vitro ADME; conditions: membrane vesicles, peficitinib up to 100 μmol/L
T2 sequence (O15439 1-1325): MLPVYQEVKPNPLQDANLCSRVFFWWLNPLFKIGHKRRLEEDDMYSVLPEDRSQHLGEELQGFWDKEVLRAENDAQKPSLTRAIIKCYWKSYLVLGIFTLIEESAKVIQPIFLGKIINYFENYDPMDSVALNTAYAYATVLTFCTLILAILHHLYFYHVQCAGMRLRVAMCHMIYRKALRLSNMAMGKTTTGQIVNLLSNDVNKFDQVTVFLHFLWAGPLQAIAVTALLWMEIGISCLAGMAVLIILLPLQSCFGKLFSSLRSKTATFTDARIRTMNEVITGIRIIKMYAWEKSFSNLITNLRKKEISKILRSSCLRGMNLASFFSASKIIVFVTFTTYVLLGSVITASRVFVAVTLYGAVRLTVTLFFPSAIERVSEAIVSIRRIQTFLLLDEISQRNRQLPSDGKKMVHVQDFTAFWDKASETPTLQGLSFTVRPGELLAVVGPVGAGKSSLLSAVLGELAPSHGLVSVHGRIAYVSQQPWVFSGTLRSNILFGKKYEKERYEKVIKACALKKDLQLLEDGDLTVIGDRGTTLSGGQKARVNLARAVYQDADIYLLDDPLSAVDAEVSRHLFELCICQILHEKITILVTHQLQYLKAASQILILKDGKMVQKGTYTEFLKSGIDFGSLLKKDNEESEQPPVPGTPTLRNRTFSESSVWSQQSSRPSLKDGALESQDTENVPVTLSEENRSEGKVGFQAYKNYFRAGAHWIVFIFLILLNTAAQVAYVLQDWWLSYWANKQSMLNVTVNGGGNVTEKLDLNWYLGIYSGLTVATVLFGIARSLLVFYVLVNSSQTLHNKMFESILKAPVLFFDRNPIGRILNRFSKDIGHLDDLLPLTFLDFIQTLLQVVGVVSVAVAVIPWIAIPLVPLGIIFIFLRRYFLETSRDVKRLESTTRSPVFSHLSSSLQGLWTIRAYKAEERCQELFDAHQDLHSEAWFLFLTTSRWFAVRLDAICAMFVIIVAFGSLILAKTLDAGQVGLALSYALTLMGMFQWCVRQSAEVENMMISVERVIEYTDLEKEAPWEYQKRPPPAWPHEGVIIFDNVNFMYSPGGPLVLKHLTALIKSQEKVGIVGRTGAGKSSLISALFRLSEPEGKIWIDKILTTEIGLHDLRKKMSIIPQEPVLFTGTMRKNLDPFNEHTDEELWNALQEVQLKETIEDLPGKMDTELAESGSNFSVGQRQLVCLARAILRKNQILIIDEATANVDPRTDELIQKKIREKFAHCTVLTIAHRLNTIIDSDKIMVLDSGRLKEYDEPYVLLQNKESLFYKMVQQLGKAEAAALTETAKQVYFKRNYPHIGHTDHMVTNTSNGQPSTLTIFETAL

tyrosine kinase 2 = conditions: cited from earlier work
OAT1 = molecular target: T3, OAT1 (Homo sapiens, UniProt Q4U2R8); assay: OAT1-mediated inhibition assay in S2 cells; assay type: in vitro ADME; conditions: OAT1-expressing S2 cells
T3 sequence (Q4U2R8 1-563): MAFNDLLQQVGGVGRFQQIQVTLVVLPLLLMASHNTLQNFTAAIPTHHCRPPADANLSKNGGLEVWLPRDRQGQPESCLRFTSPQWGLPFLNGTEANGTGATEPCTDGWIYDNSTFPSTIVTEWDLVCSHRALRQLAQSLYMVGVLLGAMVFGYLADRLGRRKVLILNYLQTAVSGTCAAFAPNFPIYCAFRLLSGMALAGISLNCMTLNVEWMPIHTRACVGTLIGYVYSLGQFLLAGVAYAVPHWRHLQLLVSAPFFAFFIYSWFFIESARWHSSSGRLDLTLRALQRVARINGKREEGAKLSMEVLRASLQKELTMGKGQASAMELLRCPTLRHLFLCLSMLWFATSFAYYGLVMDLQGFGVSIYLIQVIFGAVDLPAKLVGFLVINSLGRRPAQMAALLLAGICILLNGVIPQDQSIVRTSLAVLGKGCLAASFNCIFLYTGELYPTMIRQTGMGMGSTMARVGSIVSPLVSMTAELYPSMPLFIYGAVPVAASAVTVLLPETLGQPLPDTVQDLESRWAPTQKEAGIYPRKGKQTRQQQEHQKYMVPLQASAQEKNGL

JAK3 = conditions: cited from earlier work
JAK1 = conditions: cited from earlier work
OAT3 = molecular target: T4, OAT3 (Homo sapiens, UniProt Q8TCC7); assay: OAT3-mediated inhibition assay in S2 cells; assay type: in vitro ADME
T4 sequence (Q8TCC7 1-542): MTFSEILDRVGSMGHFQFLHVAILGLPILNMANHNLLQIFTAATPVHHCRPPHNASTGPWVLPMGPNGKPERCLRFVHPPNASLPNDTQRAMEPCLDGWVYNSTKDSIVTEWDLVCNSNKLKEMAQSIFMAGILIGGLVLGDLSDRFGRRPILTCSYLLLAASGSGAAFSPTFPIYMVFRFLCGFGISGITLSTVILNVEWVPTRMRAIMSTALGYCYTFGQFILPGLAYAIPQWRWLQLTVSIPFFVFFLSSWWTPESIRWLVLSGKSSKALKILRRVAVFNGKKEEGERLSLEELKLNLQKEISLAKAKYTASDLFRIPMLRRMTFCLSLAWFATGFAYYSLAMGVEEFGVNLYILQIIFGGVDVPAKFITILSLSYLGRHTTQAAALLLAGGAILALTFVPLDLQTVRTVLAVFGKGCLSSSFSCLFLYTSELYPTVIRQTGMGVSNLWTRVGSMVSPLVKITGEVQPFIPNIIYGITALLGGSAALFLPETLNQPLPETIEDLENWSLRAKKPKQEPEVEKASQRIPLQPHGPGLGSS

[5] = healthy male subjects; cited from earlier work
JAK2 = conditions: cited from earlier work

CN(Cc1cnc2nc(N)nc(N)c2n1)c1ccc(C(=O)N[C@@H](CCC(=O)O)C(=O)O)cc1 [Methotrexate, reference compound]
dose excreted unchanged in urine [1]: over 80%
effect on the pharmacokinetics of tofacitinib [2]: did not significantly affect the pharmacokinetics of tofacitinib
incidences of either high or low pulse rates (Safety assessments): 2
incidences of changes in diastolic blood pressure (Safety assessments): 7
incidences of changes in systolic blood pressure (Safety assessments): 4
Nausea (Safety assessments; treatment-emergent AE): 2 (13.3) n (%)
Patients who experienced AEs considered to be related to the study drug (Safety assessments): 2 (13.3) n (%)

NC(=O)c1cnc2[nH]ccc2c1N[C@@H]1[C@@H]2CC3C[C@H]1C[C@@](O)(C3)C2 [Peficitinib]
bound to protein [3]: 76–78%
decrease of peficitinib Cmax with methotrexate coadministration ([4]; Day 8 vs Day 7, from geometric mean ratio): 8%
Cmax ([4]; human, plasma, oral, 100 mg, individual maximum plasma Cmax, after 100 mg BID): 405 ng/mL
IC50 (human BCRP): 13500 nM
inhibitory effect on MRP4 (human MRP4): no significant inhibitory effects
IC50 (tyrosine kinase 2): 4.8 nM
inhibitory effect on OAT1 (OAT1): no significant inhibitory effects
IC50 (JAK1): 3.9 nM
IC50 (OAT3): 5010 nM
dose excreted unchanged in urine [5]: 14%
oral dose excreted in feces [5]: approximately 57%
oral dose excreted in urine [5]: Approximately 37%
oral dose undergoing metabolism [5]: over 65%
IC50 (JAK2): 5 nM
incidences of either high or low pulse rates (Safety assessments): 4
incidences of changes in diastolic blood pressure (Safety assessments): 9
incidences of changes in systolic blood pressure (Safety assessments): 3
Flatulence (Safety assessments; treatment-emergent AE): 4 (28.6) n (%)
Patients who experienced AEs considered to be related to the study drug (Safety assessments): 4 (28.6) n (%)
